In patent US20210352889A1, “MACROCYCLIC TETRAPYRROLE COMPOUNDS, COMPOSITIONS AND METHODS FOR INCREASING ABIOTIC STRESS RESISTANCE IN PLANTS” (SUNCOR ENERGY INC., priority 2018, published 2021):

Tests used:
[1] = system: Arabidopsis thaliana; test: Plant senescence triggered by salt stress, visual rating (Example 2); format: in vivo; parameters: key to Ratings at 14 days: 9: Normal growth, no leaf symptoms; 7: Nearly normal growth with some leaves and tips yellow and rolled; 4: Growth severely inhibited, significant yellowing of the leaves with most leaves rolled; 2: Complete growth arrest with most of the leaves dried and some plants dead; details: for % improvement: % senescence improvement relative to untreated control, 14 days; for Ratings at 14 days: visual leaf senescence score, salt stress 100, 200, 300 mM NaCl, percentages wt % of total composition
Protocol: In this example, the effect of metalized chlorin compounds and various additives on Arabidopsis thaliana senescence triggered by salt stress was measured by a visual rating scale reflecting progressive leaf senescence symptoms. […] It was also shown that the addition of oil, in particular poly-alpha-olefin (PAO), chelating agents or combinations thereof, further increased the protection. After prolonged exposure to salt stress, Na^+ accumulation in the shoot results in cytotoxic effects, whereby the most visible symptom is yellowing, followed by drying of leaves, due to leaf senescence and death. Leaf senescence may be evaluated by visual scoring reflecting progressive leaf senescence symptoms. [table] […] All percentage values in the Table are in wt % of total composition.

[2] = system: tomato plants cv. Tumbling Tom; test: Tomato plants tolerance to drought stress (Example 9); format: in vivo; details: Table 9C
Protocol: In this example, the effects of chlorin compounds and formulations were tested on tomato plants cv. Tumbling Tom. The experiments were carried out in a greenhouse. Tests were designed to determine the activity of compounds on tomato plants tolerance to drought stress. In the experiments, tomato plants cv. […] Foliar treatments were applied 3 times with 7 days interval. 5 replications per treatment were used.

[3] = system: Arabidopsis seedlings; test: Pigment content under photooxidative conditions (Example 6); format: in vivo, Arabidopsis thaliana
Protocol: In this example, the effect of chlorin compounds on the pigment content of seedlings grown under photooxidative conditions was evaluated. In particular, the effect of CuChIn on the pigment content of Arabidopsis seedlings grown under photooxidative conditions was evaluated. To do so, the pigments were extracted and quantified. It was shown that CuChIn supplemented plants retained more pigments under this type of stress. […] In this experiment, to determine the effect of CuChIn on the pigment content, seedlings were grown as in Example 1, except that the plants were transferred under LED lights (PAR 142 μmol m^-2 s^-1) one week after germination. 14 days old seedlings were then harvested and weighted. The tissue was ground in liquid nitrogen. […] The pigment concentrations were determined spectrophotometrically and calculated using the following formulas known to those skilled in the art (i.e. Sumanta et al., 2014):Ch-a=16.72A665.2-9.16A652. (for chlorophyll a); Ch-b=34.09[…]=(1000A470-1.63Ca-104.96Cb)/221 (for carotenoids) and […]-(1⁄4×[…]) (for anthocyanins) (A=absorbance). The data is expressed as means±standard error.

[4] = system: Tomato cultivar “Tiny Tim”; test: Tomato plant tolerance to heat stress (Example 19); format: in vivo; details: for Above ground plant biomass. Dry weight Total shoots / Roots dry weight / Above ground plant biomass, Fresh weight, Total shoots: heat stress 38° C., two foliar applications; for Above ground plant biomass. Dry weight Total shoots: harvest 27 days after first treatment, per plant; for Roots dry weight / Above ground plant biomass, Fresh weight, Total shoots: tomato; for Above ground plant biomass, Fresh weight, Total shoots: 27 days after first treatment; for Roots dry weight, % increase / Total shoots dry weight % increase / Total shoots fresh weight, % increase: vs Heat stress Control
Protocol: In this example, the effects of chlorin compounds and formulations were tested on Tomato cultivar “Tiny Tim” (Stokes seeds, Ontario, Canada). Several experiments were conducted in the greenhouse and Growth Chamber. The tests were designed to determine the activity of compounds on tomato plants tolerance to heat stress. In the experiments, Tomato transplants were grown in 6″ plastic pots filled with professional soil mix to 5-6 leaves stage in the greenhouse at 22° C.-25° C. and 8 h dark/16 h light photoperiod respectively. […] The Tomato plants were treated with two foliar applications of different formulations providing an even coverage (until run-off) using hand hold Spray bottle (Continental E-Z sprayer). Plants were treated with compounds two times with 7 days interval. Twenty four hours after the first foliar spray plants were placed into a Growth chamber and exposed to temperature stress (heat stress) for 10 days. […] After second foliar spray plants were placed for a second time into the Growth chamber and exposed to temperature stress (heat stress) for another 10 days. The Tomato plants were regularly watered to avoid water deficit. The Growth chamber was set at 16 h light/8 h dark photoperiod, illumination at 300 μmol·m^−2 s^−1 during the light photoperiod and 70% relative humidity. Temperature regime in the Growth chamber was set at 25° C. during the dark. […] Plants were moved from the Growth Chamber to the greenhouse and maintained in the greenhouse for four days prior to harvest. Twenty-seven days after the first treatment, plants were harvested, and biomass were recorded. Untreated plants—Heat stress Control was used as a reference for each measurement respectively. The experiments were set out in a completely randomized design with 6 replications for each treatment.

[5] = system: Arabidopsis thaliana; test: Effect of different oil on Arabidopsis senescence under salt stress (Example 24); details: in vivo
Protocol: The experimental protocol is the same as that of Example 2. In this example, the effect of metalized chlorin compounds and various oils on Arabidopsis thaliana senescence triggered by salt stress was measured by a visual rating scale reflecting progressive leaf senescence symptoms. […] It was also shown that the addition of oil further increased the protection. After prolonged exposure to salt stress, Na^+ accumulation in the shoot results in cytotoxic effects, whereby the most visible symptom is yellowing, followed by drying of leaves, due to leaf senescence and death. Leaf senescence may be evaluated by visual scoring reflecting progressive leaf senescence symptoms.

[6] = system: Arabidopsis thaliana seedlings; test: Primary root length of Arabidopsis seedlings under salt stress (Example 1); format: in vivo; details: for Root length (mm): 10 μM CuChln in media, 10 days after germination, mean ± standard error
Protocol: Experiments were conducted to evaluate the effect of metallized chlorin compounds on salt stress treated seedlings, by measuring of primary root length. Copper chlorophyllin (CuChIn) was supplemented to the media onto which Arabidopsis thaliana seeds germinated. […] For exposure to salt, media was adjusted to contain 100 mM NaCl. For exposure to CuChIn, CuChIn was prepared as a 1 mM stock in water and was added to the media at 10 μM CuChIn final concentration. […] Arabidopsis seedlings were grown vertically at a temperature of 24±1° C., under LED lights (PAR 24 μmol m^−2/s^−1) and 16 hours:8 hours, light:dark photoperiod. Salt stress tolerance was measured by determining the reduction of primary root lengths.

[7] = system: white clover (Trifolium repens) seedlings; test: Primary root length of white clover seedlings under salt stress (Example 3); format: in vivo; details: porphyrin 0.01% v/v, 7 days after germination, mean ± standard error
Protocol: In this example, the effect of porphyrin compounds on the sensitivity to salt stress of seedlings was evaluated. […] For exposure to salt, the water was adjusted to contain 100 mM NaCl. […] Salt stress tolerance was measured by determining the reduction of primary root length by analysis of pictures with the Image J™ software. Root lengths (mm) were measured 7 days after the germination. The following Table 3 summarizes the results.

[8] = foliar spray, vs drought control
[9] = 20 μM CuChln, photooxidative conditions, 14 days old seedlings, mean ± standard error

O=C([O-])CC(NC(CC(=O)[O-])C(=O)[O-])C(=O)[O-].[Na+].[Na+].[Na+].[Na+] (stereo not shown) [0.25% Baypure CX100 ™, tetrasodium iminodisuccinate]
% improvement [1]: 14.4%
Ratings at 14 days [1]: 4

copper chlorophyllin [CuChln]
Shoots Dry weight % increase [2, 8]: 4%
Shoots Fr. weight % increase [2, 8]: 29.6%
Plant vigor Score 1-5 ([2]; prolonged drought, foliar spray 3 times): 4.6
Shoots Fr. weight ([2]; prolonged drought, foliar spray 3 times with 7 days interval, Rate, %: CuChln 0.1, PAO488 + CuChln 0.5 + 0.1): 8.7 g
Shoots Dry weight ([2]; prolonged drought, foliar spray 3 times, Rate, %: CuChln 0.1, PAO488 + CuChln 0.5 + 0.1): 0.84 g
% improvement [1]: 28.7%
protection against senescence triggered by salt stress ([1]; in vivo): provides protection against plants senescence triggered by salt stress
Ratings at 14 days [1]: 4.5
Anthocyanins [3, 9]: 0.08 ± 0.05 µg/mL
Ch-a [3, 9]: 6.62 ± 0.8 µg/mL
Ch-b [3, 9]: 2.28 ± 0.14 µg/mL
Cx + c (carotenoids) [3, 9]: 1.56 ± 0.25 µg/mL
pigments retained under photooxidative conditions ([3]; in vivo): retain more pigments than untreated plants
Above ground plant biomass. Dry weight Total shoots [4]: 4.92 g
Roots dry weight [4]: 1.17 g/plant−^1
Above ground plant biomass, Fresh weight, Total shoots [4]: 37.17 g/plant^−1
Roots dry weight, % increase [4]: 26%
Total shoots dry weight % increase [4]: 10%
Total shoots fresh weight, % increase [4]: 11%
protection against senescence triggered by salt stress [5]: provided protection against senescence triggered by salt stress
Root length (mm) ([6]; 0 mM NaCl): 5.05 ± 0.09 mm
influence on root length in the control experiment ([6]; 10 μM CuChIn, no salt): did not influence the root length
Root length (mm) ([6]; 100 mM NaCl): 3.16 ± 0.14 mm
salt tolerance vs untreated plants ([6]; CuChIn supplemented media): more salt tolerant than untreated plants

O=C([O-])CN(CCN(CC(=O)[O-])CC(=O)[O-])CC(=O)[O-].[Ca+2].[Ca+2] [0.05% Ca2EDTA, reference compound]
Above ground plant biomass. Dry weight Total shoots [4]: 4.72 g
Roots dry weight [4]: 1.07 g/plant−^1
Above ground plant biomass, Fresh weight, Total shoots [4]: 34.62 g/plant^−1
Roots dry weight, % increase [4]: 15%
Total shoots dry weight % increase [4]: 6%
Total shoots fresh weight, % increase [4]: 3%

C=CC1=C(C)c2cc3[n-]c(cc4[n-]c(cc5nc(cc1n2)C(C)=C5C=C)c(C)c4CCC(=O)O)c(CCC(=O)O)c3C.[Zn+2] [ZnPP9, zinc protoporphyrin-IX]
Root length (mm) ([7]; 0 mM NaCl): 1.01 ± 0.08 mm
Root length (mm) ([7]; 100 mM NaCl): 0.8 ± 0.08 mm

ethylenediaminetetraacetic acid-Ca [reference compound]
% improvement [1]: 14.4%
Ratings at 14 days [1]: 4

O=C(O)CC(NCCNC(CC(=O)O)C(=O)O)C(=O)O (stereo not shown) [5 mM EDDS, ethylenediamine-N,N′-disuccinic acid, reference compound]
% improvement [1]: 14.4%
Ratings at 14 days [1]: 4

C=CC1=C(C)c2cc3[nH]c(cc4nc(cc5[nH]c(cc1n2)c(C)c5CCC(=O)O)C(CCC(=O)O)=C4C)c(C)c3C=C [PP9, protoporphyrin-IX]
Root length (mm) ([7]; 0 mM NaCl): 1.04 ± 0.05 mm
Root length (mm) ([7]; 100 mM NaCl): 0.7 ± 0.08 mm
